# What was measured:
# [1] = target: Interferon-induced, double-stranded RNA-activated protein kinase (Homo sapiens) (UniProt P19525); assay: PKR(h) Eurofins kinase panel; details: Compound concentration 1.0 uM
# [2] = target: T1, Discoidin domain-containing receptor 2 (Homo sapiens) (UniProt Q16832); assay: DDR2(h) Eurofins kinase panel; details: Compound concentration 1.0 uM
# T1 sequence (whole entry): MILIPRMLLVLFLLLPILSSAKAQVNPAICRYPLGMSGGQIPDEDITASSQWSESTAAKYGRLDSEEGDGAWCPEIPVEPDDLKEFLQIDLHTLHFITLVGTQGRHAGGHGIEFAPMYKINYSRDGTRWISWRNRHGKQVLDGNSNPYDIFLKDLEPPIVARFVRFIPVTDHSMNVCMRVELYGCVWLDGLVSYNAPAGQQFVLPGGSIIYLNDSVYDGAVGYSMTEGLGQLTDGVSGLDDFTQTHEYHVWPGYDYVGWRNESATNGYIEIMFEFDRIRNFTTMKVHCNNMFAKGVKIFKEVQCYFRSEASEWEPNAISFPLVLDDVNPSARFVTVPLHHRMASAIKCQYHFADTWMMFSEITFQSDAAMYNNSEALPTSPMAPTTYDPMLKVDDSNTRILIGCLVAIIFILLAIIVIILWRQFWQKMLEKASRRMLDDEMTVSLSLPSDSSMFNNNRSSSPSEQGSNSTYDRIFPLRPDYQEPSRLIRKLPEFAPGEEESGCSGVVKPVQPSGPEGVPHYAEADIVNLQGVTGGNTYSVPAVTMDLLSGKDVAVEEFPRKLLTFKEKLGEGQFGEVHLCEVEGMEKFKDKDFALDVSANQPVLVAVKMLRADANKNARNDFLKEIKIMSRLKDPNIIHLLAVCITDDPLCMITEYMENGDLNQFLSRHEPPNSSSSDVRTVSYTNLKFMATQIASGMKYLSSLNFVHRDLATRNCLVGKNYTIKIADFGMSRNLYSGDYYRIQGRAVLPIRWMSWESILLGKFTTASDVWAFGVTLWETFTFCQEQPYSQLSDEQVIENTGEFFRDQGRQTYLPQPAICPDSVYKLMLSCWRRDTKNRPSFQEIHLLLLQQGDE
# SU-DHL10 = assay: SU-DHL-10 cell line Proliferation assay; assay type: functional, Homo sapiens; details: time 3 day
# [3] = target: Protein-tyrosine kinase 2-beta (Homo sapiens) (UniProt Q14289); assay: Pyk2(h) Eurofins kinase panel; details: Compound concentration 1.0 uM
# [4] = target: LIM domain kinase 1 (Homo sapiens) (UniProt P53667); assay: LIMK1(h) Eurofins kinase panel; details: Compound concentration 1.0 uM
# [5] = target: Receptor tyrosine-protein kinase erbB-4 (Homo sapiens) (UniProt Q15303); assay: ErbB4(h) Eurofins kinase panel; details: Compound concentration 1.0 uM
# ATR/ATRIP (Homo sapiens) = ATR/ATRIP (Homo sapiens) (UniProt Q13535+Q8WXE1); assay: ATR/ATRIP(h) Eurofins kinase panel; assay type: protein-complex assay; details: Compound concentration 1.0 uM
# [6] = target: T2, Mitogen-activated protein kinase kinase kinase 5 (Homo sapiens) (UniProt Q99683); assay: ASK1(h) Eurofins kinase panel; details: Compound concentration 1.0 uM
# T2 sequence (whole entry): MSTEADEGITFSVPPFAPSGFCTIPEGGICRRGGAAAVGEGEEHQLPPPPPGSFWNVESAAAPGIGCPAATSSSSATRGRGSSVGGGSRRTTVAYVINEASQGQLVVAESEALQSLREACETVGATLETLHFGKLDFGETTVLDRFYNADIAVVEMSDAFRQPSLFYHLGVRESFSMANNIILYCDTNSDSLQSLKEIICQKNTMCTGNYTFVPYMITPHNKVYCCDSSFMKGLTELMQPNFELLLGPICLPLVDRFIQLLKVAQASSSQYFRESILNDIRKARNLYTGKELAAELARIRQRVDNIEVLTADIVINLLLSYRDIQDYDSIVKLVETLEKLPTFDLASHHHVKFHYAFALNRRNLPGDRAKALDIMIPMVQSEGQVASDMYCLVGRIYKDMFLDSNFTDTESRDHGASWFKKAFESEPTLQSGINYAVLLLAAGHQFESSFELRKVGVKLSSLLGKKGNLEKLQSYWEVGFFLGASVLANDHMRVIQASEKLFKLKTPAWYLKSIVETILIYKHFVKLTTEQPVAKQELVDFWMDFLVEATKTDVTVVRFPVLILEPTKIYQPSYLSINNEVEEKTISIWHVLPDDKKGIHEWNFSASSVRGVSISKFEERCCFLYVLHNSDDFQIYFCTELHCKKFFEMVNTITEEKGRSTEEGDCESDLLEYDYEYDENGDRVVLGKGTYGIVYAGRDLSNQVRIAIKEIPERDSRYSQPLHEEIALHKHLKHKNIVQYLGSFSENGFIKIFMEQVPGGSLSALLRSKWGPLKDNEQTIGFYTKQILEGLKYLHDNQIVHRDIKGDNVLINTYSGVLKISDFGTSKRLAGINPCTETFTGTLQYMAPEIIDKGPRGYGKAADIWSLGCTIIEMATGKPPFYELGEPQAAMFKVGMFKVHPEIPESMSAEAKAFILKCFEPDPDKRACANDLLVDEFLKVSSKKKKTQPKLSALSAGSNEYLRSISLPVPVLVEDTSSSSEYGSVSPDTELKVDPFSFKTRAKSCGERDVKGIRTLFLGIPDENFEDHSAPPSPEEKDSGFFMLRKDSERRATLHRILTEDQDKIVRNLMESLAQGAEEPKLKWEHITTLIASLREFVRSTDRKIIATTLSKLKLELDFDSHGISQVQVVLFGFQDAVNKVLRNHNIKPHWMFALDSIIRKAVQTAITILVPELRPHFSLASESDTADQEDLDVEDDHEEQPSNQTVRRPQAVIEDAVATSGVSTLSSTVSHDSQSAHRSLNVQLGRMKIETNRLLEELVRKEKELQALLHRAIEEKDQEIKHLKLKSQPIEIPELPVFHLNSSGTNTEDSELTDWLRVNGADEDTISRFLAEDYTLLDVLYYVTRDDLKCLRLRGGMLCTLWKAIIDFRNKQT
# [7] = target: Ribosomal protein S6 kinase beta-1 (Homo sapiens) (UniProt P23443); assay: p70S6K(h) Eurofins kinase panel; details: Compound concentration 1.0 uM
# Sequence of Ribosomal protein S6 kinase beta-1 (Homo sapiens) (P23443 whole entry, looked up): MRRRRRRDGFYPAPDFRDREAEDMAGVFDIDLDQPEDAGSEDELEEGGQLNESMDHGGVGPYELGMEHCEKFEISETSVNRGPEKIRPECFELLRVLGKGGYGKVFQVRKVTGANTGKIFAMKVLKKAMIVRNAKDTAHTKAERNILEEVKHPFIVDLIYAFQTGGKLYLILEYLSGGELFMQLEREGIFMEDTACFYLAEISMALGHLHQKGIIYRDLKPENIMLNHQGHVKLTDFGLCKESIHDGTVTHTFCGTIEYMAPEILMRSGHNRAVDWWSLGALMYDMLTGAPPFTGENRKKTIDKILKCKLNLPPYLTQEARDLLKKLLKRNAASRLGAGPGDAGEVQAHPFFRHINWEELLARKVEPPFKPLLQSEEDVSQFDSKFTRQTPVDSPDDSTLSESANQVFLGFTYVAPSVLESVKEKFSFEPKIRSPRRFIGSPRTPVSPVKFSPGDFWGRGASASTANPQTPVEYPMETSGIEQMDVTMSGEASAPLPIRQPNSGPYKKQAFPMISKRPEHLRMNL
# Sequence of LIM domain kinase 1 (Homo sapiens) (P53667 whole entry, looked up, the tested form may be a part): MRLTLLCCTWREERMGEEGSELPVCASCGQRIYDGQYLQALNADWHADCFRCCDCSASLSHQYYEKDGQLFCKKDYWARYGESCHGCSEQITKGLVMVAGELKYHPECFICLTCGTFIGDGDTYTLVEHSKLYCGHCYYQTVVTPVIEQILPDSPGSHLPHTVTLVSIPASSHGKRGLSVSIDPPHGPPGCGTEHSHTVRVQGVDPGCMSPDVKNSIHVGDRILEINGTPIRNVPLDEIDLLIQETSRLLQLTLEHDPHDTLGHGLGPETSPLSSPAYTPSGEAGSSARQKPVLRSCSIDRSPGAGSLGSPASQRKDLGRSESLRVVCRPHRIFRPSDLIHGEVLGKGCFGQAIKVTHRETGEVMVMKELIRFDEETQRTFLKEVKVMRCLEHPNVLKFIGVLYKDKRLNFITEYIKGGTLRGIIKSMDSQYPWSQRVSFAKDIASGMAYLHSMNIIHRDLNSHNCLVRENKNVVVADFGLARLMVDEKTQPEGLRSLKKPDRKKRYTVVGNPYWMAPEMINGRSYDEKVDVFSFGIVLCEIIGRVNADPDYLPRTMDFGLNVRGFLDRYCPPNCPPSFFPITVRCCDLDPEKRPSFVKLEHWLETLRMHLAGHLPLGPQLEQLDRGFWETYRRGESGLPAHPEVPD
# Sequence of Protein-tyrosine kinase 2-beta (Homo sapiens) (Q14289 whole entry, looked up, the tested form may be a part): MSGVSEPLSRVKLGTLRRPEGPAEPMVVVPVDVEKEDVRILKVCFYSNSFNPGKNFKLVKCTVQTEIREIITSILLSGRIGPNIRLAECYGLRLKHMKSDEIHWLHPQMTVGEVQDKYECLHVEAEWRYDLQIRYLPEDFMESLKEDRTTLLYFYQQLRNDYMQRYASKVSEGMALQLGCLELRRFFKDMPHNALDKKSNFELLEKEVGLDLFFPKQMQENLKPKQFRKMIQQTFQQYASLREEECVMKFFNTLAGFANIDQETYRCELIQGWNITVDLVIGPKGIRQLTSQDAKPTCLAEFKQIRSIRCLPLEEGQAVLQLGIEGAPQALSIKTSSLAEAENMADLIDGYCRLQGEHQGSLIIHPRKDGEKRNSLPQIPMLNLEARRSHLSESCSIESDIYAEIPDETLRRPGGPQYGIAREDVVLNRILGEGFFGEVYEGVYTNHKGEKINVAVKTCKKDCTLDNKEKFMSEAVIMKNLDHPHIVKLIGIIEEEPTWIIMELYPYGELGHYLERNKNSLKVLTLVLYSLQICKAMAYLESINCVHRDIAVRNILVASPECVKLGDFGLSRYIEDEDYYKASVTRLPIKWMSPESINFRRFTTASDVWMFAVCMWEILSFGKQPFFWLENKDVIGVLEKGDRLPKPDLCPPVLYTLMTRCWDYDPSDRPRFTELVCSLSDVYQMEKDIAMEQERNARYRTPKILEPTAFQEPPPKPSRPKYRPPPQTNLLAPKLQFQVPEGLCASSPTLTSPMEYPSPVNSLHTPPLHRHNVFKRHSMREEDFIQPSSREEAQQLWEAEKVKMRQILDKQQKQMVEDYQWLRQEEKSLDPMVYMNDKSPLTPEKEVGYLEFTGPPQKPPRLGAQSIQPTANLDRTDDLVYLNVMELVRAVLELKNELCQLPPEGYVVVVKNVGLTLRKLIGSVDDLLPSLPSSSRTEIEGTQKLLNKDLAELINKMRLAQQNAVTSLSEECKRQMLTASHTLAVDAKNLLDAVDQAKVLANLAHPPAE
# Sequence of Receptor tyrosine-protein kinase erbB-4 (Homo sapiens) (Q15303 whole entry): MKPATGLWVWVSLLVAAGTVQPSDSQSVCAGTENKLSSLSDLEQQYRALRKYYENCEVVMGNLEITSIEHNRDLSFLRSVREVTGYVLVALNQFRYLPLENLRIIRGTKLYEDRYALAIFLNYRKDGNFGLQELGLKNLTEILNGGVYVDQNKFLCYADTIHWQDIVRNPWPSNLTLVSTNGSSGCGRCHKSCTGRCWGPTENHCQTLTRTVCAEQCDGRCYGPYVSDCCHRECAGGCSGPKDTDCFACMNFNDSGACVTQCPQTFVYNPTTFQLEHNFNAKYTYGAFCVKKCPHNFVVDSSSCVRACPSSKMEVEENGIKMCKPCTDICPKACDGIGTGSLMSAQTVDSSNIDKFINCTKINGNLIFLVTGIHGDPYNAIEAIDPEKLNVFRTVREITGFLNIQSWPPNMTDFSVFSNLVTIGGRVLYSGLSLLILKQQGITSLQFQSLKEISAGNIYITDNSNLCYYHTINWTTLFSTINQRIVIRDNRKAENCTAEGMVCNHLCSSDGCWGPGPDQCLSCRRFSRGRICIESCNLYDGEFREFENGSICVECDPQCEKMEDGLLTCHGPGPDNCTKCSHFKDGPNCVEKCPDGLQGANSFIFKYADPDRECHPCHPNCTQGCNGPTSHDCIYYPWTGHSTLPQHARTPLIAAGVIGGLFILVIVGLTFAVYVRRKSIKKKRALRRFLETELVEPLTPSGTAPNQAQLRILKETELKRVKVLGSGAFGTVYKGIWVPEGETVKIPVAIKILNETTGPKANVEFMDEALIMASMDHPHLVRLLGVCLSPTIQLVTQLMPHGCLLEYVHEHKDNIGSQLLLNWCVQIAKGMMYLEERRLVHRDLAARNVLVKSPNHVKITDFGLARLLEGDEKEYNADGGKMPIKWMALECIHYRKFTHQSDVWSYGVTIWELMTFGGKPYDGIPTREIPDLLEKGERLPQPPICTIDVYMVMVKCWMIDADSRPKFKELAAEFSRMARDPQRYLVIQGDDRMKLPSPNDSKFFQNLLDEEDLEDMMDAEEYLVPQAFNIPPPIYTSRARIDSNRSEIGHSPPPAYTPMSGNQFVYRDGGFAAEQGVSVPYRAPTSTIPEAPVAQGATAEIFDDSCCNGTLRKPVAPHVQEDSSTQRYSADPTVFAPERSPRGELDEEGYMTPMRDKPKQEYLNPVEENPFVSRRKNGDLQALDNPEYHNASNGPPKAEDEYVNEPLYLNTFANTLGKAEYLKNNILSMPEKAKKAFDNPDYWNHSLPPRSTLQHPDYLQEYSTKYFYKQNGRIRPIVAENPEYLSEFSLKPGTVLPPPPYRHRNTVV
# Sequence of Interferon-induced, double-stranded RNA-activated protein kinase (Homo sapiens) (P19525 whole entry, the tested form may be a part): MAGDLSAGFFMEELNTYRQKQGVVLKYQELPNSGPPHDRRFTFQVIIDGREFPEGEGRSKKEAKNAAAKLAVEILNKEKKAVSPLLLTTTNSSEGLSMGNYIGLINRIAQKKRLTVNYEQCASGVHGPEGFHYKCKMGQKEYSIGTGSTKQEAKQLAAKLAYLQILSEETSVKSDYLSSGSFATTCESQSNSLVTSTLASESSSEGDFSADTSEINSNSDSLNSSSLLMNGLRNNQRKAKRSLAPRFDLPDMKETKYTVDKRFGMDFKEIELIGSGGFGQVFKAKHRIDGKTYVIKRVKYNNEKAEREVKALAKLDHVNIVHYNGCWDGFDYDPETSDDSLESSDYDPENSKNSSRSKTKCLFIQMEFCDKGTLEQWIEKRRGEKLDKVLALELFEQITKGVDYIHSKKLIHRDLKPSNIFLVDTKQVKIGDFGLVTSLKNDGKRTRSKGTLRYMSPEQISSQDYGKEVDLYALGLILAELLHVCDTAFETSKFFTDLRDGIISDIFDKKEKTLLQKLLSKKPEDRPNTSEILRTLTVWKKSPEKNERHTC
compound,measurement,setting,value
CCc1ccccc1C(=O)Nc1n[nH]c2c(C)c(F)c(C3C(C#N)=C(C)N(C)C(C)=C3C#N)cc12 [BAY-3827],% residual kinase activity,[1],96%
same,% residual kinase activity,[2],92%
same,Cell Proliferation IC50,SU-DHL10,12.5 µM
same,% residual kinase activity,[3],76%
same,% residual kinase activity,[4],95%
same,% residual kinase activity,[5],101%
same,% residual kinase activity,ATR/ATRIP (Homo sapiens),94%
same,% residual kinase activity,[6],99%
same,% residual kinase activity,[7],76%
